The source of these data is patent US20230043863A1, “HETEROAROMATIC DERIVATIVES FOR USE AS REGULATOR, PREPARATION METHOD THEREFOR AND USE THEREOF” (JIANGSU HANSOH PHARMACEUTICAL GROUP CO., LTD., priority 2018, published 2023).

As usually defined, the IC50 is the midpoint of a concentration-inhibition curve. As usually defined, the MRT is a mean duration of stay, worked out from the concentration-time curve. By Tmax is commonly meant the time from dosing to the highest level.

One series has as its target JAK2 (Homo sapiens, UniProt O60674). Nature of the series: JAK kinase activity inhibition, TR-FRET (JAK2). It is filed as biochemical. As to conditions: TR-FRET kinase assay. Put shortly: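 Enzymatic inhibition measured by time-resolved FRET using 0.1-20 nM kinase with peptide substrate and ATP, reacted 0.5-5 hours at room temperature. Percent inhibition was normalized to DMSO (no inhibitor) and kinase-free wells, and concentration-response data were fitted with a 4-parameter logistic model.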
(In general: TR-FRET usually uses a lanthanide donor and a delayed reading to cut background.)

The nature of series [1]: Balb/C mouse pharmacokinetics (plasma, colon, ileum). It is filed as in vivo. Particulars: male, po, Balb/C mice, p.o. 5 mg/kg; for Cmax: read-out: Blood concentration Cmax; for AUC(0-t): read-out: Curve area AUC0-t; for MRT: read-out: Mean detention time MRT; for Tmax: read-out: Time to peak tmax; for AUC(0-inf): read-out: Curve area AUC0-∞; for half-life: read-out: Half life period t1/2 (converted). Summed up: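 Male Balb/C mice (12 per group), fasted overnight, given 5 mg/kg p.o.; plasma, ileum and colon sampled at 0–7 h. Drug levels by LC/MS/MS, […]; parameters include colon/ileum and colon/plasma concentration ratios.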

Molecules are shown by their SMILES. Read-outs that look alike come from different tables or passages of the source.

Sequence of JAK2 (O60674 whole entry): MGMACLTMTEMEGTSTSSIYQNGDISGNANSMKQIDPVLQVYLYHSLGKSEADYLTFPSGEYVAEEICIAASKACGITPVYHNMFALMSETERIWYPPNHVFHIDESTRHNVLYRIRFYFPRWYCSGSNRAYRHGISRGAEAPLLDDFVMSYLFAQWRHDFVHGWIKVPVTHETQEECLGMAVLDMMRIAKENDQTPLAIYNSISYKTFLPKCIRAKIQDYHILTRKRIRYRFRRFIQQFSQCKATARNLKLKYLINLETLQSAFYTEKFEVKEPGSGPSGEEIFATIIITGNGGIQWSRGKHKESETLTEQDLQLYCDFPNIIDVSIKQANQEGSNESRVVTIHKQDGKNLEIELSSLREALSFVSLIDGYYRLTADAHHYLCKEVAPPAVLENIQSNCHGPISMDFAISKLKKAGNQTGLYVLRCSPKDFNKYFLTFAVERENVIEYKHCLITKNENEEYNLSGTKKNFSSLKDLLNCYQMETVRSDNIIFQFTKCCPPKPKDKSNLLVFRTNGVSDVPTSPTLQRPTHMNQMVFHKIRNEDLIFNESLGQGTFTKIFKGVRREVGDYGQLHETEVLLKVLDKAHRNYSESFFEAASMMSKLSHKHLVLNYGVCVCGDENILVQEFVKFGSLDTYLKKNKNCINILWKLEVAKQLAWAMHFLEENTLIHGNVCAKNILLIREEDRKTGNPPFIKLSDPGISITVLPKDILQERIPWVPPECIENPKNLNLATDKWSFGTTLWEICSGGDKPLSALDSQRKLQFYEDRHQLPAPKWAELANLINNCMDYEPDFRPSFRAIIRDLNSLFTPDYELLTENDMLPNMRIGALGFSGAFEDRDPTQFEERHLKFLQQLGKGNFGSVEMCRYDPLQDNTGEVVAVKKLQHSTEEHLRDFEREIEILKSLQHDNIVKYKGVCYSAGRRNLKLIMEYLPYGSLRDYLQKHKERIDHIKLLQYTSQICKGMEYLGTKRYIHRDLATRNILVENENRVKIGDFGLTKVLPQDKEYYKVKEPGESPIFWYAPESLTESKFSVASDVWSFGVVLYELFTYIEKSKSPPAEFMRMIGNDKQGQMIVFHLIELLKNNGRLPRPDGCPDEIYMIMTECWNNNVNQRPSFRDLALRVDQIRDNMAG

Regarding `Cc1cc(Nc2nc(N[C@@H]3C[C@H]4CCC[C@@H](C3)N4C(=O)CN3CCOCC3)nc3sccc23)n[nH]1` [Embodiment 246, 1-((3-exo)-3-((4-((5-methyl-1H-pyrazol-3-yl)amino)thieno[2,3-d]pyrimidin-2-yl)amino)-9-azabicyclo[3.3.1]non-9-yl)-2-morpholinoethane-1-one], the concentration for half-maximal inhibition (IC50) on JAK2 amounted to 710 pM. Moreover, in series [1] (plasma, blood), the Cmax was found to be 5.56 ng/mL, the AUC(0-t) was 4.76 ng·h/mL, the mean residence time MRT worked out at 1.46 h and the time of peak concentration (Tmax) worked out at 2 h. Also, in series [1] (colon), the Cmax stood at 3260 ng/mL, the AUC(0-t) amounted to 13800 ng·h/mL, the MRT is 4.79 h and the time of peak concentration (Tmax) was 7 h. For the same compound, in series [1] (ileum), the Cmax turned out to be 16800 ng/mL, the AUC(0-t) came to 27900 ng·h/mL, the AUC(0-inf) was 28400 ng·h/mL and the half-life is 1.81 h. In series [1] (ileum), the MRT came to 1.28 h and the Tmax came out at 1 h.

As to `CNCC(=O)N1[C@@H]2CCC[C@H]1C[C@H](Nc1nc(Nc3cc(C)[nH]n3)c3ccsc3n1)C2` [Embodiment 247, 1-((3-exo)-3-((4-((5-methyl-1H-pyrazol-3-yl)amino)thieno[2,3-d]pyrimidin-2-yl)amino)-9-azabicyclo[3.3.1]non-9-yl)-2-(methylamino)-ethane-1-one], the IC50 at JAK2 worked out at 730 pM. Also, in series [1] (colon), the Cmax stood at 2270 ng/mL, the AUC(0-t) amounted to 10200 ng·h/mL, the mean residence time MRT is 4.05 h and the Tmax worked out at 3 h. Besides, in series [1] (ileum), the Cmax stood at 13800 ng/mL, the AUC(0-t) is 24700 ng·h/mL, the AUC(0-inf) was found to be 24900 ng·h/mL and the half-life is 0.92 h. In addition, in series [1] (ileum), the MRT was 1.39 h and the Tmax worked out at 1 h.

For `Cc1cc(Nc2nc(N(C)[C@@H]3C[C@H]4CCC[C@@H](C3)N4C(=O)CN3CCN(C)CC3)nc3sccc23)n[nH]1` [Embodiment 257, 1-((3-exo)-3-(methyl(4-((5-methyl-1H-pyrazol-3-yl)amino)thieno[2,3-d]pyrimidin-2-yl)amino)-9-azabicyclo[3.3.1]non-9-yl)-2-(4-methylpiperazin-1-yl)ethane-1-one], at JAK2, the IC50 is 830 pM. For the same compound, in series [1] (plasma, blood), the Cmax was found to be 33.9 ng/mL, the AUC(0-t) worked out at 64.7 ng·h/mL, the AUC(0-inf) came out at 64.8 ng·h/mL and the half-life was 1.22 h. Also, in series [1] (plasma, blood), the MRT was 2.18 h and the Tmax worked out at 1 h. In addition, in series [1] (colon), the Cmax worked out at 3990 ng/mL, the AUC(0-t) came out at 12300 ng·h/mL, the MRT was 4.24 h and the Tmax was 5 h. For the same compound, in series [1] (ileum), the Cmax amounted to 25800 ng/mL, the AUC(0-t) was 104000 ng·h/mL, the AUC(0-inf) worked out at 123000 ng·h/mL and the half-life was 1.98 h. In addition, in series [1] (ileum), the MRT is 3.07 h and the time of peak concentration (Tmax) stood at 3 h.

With `Cc1cc(Nc2nc(N[C@@H]3C[C@H]4CCC[C@@H](C3)N4C(=O)c3ccccn3)nc3sccc23)n[nH]1` [Embodiment 260, ((3-exo)-3-((4-((5-methyl-1H-pyrazol-3-yl)amino)thieno[2,3-d]pyrimidin-2-yl)amino)-9-azabicyclo[3.3.1]non-9-yl)(pyridin-2-yl)methanone], the half-maximal inhibitory concentration (IC50) on JAK2 was 360 pM. For the same compound, in series [1] (plasma, blood), the Cmax stood at 24 ng/mL, the AUC(0-t) worked out at 27.3 ng·h/mL, the AUC(0-inf) was 29.4 ng·h/mL and the half-life is 1.57 h. Also, in series [1] (plasma, blood), the MRT is 1.37 h and the time to peak (Tmax) was 1 h. In series [1] (colon), the Cmax worked out at 8880 ng/mL, the AUC(0-t) is 24400 ng·h/mL, the MRT stood at 3.39 h and the Tmax is 3 h. In series [1] (ileum), the Cmax is 9080 ng/mL, the AUC(0-t) was 18500 ng·h/mL, the AUC(0-inf) was found to be 18700 ng·h/mL and the half-life is 1.01 h. For the same compound, in series [1] (ileum), the mean residence time MRT was 1.57 h and the Tmax came to 1 h.
